Test [1] has as its target G protein-coupled receptor kinase 6 (Homo sapiens, UniProt P43250).
Test [2] concerns the target T1, ADP/ATP translocase 2 (Homo sapiens, UniProt P05141).
T1 sequence (P05141 whole entry): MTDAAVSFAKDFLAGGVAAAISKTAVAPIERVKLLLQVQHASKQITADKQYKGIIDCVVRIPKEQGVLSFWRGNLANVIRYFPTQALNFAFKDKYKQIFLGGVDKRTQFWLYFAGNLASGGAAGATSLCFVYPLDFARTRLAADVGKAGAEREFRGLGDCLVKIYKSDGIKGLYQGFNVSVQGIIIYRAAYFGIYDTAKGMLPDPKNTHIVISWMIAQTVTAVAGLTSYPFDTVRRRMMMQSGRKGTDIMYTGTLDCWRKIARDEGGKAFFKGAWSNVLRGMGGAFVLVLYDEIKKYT

Test [3] addresses Ribosomal protein S6 kinase alpha-4 (Homo sapiens, UniProt O75676).
In test [4] the target is Epithelial discoidin domain-containing receptor 1 (Homo sapiens, UniProt Q08345).
Epithelial discoidin domain-containing receptor 1, sequence (Q08345 whole entry, the tested form may be a part): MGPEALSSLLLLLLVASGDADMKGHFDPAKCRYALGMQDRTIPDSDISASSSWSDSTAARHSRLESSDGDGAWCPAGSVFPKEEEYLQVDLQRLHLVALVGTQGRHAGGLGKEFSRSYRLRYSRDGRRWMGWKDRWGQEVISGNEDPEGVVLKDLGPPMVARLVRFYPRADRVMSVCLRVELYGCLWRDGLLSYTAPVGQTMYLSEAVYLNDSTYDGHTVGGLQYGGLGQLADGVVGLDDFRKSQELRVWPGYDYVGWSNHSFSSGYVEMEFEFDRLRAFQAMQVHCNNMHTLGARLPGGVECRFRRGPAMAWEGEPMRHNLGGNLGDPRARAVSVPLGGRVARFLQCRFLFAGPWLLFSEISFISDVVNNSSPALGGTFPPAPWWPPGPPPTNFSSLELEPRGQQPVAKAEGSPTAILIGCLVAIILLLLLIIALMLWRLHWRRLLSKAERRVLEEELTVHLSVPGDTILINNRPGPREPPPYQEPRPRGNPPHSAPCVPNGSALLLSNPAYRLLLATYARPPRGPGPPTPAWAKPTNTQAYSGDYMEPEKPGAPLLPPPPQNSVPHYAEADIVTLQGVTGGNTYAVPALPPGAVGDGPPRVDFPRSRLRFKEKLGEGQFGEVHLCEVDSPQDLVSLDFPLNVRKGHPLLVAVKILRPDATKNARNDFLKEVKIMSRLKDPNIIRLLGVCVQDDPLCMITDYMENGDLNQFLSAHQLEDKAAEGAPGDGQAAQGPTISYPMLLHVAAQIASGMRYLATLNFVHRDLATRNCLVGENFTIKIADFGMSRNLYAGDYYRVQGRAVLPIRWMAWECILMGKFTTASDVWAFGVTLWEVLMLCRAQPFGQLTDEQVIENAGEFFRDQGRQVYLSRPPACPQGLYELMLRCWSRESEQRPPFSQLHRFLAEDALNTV
For test [5], the target named is Tyrosine-protein kinase Fer (Homo sapiens, UniProt P16591).
Tyrosine-protein kinase Fer, sequence (P16591 whole entry): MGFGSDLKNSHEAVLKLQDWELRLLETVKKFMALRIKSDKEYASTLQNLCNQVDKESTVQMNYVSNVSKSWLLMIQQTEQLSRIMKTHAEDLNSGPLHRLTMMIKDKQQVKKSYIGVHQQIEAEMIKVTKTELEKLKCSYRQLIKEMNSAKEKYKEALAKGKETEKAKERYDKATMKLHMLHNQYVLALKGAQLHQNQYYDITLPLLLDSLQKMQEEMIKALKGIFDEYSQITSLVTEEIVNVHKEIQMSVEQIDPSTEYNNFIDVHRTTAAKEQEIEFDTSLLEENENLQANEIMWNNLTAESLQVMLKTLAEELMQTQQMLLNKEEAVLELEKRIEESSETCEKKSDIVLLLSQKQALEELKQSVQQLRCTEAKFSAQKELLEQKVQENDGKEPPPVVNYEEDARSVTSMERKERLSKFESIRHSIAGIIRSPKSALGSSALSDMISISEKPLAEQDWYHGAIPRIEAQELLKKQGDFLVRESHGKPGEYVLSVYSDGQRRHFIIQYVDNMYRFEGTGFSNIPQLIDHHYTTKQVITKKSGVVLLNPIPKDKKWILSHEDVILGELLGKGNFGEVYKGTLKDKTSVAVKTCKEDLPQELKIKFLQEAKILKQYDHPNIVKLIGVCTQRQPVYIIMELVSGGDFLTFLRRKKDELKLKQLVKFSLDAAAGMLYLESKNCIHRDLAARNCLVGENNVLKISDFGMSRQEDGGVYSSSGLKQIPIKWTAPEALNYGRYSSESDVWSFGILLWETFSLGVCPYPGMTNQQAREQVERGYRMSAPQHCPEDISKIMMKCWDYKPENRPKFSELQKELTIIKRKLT
Test [6] addresses Serine/threonine-protein kinase N1 (Homo sapiens, UniProt Q16512).
Test [7] has as its target T2, Ferrochelatase, mitochondrial (Homo sapiens, UniProt P22830).
T2 sequence (P22830 whole entry): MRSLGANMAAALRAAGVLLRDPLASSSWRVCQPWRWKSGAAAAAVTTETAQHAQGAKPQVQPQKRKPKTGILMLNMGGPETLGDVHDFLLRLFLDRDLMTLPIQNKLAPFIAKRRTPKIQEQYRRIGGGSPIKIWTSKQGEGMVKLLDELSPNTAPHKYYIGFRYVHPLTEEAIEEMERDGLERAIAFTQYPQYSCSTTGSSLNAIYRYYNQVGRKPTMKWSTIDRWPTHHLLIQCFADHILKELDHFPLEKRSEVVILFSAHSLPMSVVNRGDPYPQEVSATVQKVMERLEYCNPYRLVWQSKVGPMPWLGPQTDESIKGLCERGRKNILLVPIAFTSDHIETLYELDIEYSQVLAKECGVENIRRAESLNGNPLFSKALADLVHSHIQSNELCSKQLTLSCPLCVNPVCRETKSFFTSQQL

In test [8] the target is Bone morphogenetic protein receptor type-1B (Homo sapiens, UniProt O00238).
Bone morphogenetic protein receptor type-1B, sequence (O00238 whole entry): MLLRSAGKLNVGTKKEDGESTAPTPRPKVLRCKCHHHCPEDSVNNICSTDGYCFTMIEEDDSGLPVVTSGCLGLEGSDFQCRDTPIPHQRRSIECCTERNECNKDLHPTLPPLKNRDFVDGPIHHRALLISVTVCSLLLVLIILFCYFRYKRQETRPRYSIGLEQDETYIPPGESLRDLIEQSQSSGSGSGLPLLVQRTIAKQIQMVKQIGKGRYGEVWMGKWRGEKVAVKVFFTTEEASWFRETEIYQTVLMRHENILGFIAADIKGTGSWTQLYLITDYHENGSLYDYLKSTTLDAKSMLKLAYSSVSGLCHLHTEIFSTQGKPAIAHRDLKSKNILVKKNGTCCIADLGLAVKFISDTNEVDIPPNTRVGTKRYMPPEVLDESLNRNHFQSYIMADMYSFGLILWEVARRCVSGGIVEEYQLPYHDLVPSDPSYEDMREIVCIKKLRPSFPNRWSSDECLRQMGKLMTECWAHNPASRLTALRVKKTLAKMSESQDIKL
In test [9] the target is Insulin receptor (Homo sapiens, UniProt P06213).
Test [10] addresses T3, Bifunctional phosphoribosylaminoimidazole carboxylase/phosphoribosylaminoimidazole succinocarboxamide synthetase (Homo sapiens, UniProt P22234).
T3 sequence (P22234 whole entry): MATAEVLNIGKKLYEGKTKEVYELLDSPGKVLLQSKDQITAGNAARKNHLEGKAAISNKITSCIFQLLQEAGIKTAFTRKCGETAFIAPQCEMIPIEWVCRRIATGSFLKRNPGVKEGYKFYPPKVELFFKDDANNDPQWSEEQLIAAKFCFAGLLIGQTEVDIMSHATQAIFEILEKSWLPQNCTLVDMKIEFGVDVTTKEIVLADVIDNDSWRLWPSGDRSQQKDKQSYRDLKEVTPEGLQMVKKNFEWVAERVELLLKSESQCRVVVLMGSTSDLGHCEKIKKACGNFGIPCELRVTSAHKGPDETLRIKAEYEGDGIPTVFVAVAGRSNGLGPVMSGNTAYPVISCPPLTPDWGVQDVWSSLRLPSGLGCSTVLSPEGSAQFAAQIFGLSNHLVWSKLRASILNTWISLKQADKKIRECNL

For test [11], the target named is Proto-oncogene tyrosine-protein kinase receptor Ret (Homo sapiens, UniProt P07949).
In test [12] the target is Cyclin-dependent kinase 5 (Homo sapiens, UniProt Q00535).
Cyclin-dependent kinase 5, sequence (Q00535 whole entry): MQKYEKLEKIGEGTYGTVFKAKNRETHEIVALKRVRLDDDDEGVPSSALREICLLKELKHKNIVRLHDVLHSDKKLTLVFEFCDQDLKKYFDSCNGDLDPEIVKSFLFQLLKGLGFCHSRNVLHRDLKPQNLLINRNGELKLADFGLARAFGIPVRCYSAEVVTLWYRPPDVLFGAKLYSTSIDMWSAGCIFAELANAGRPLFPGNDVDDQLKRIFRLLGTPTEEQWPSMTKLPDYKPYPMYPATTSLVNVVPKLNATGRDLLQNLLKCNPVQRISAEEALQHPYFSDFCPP
Test [13] has as its target T4, ATP-dependent RNA helicase DHX30 (Homo sapiens, UniProt Q7L2E3).
T4 sequence (Q7L2E3 whole entry): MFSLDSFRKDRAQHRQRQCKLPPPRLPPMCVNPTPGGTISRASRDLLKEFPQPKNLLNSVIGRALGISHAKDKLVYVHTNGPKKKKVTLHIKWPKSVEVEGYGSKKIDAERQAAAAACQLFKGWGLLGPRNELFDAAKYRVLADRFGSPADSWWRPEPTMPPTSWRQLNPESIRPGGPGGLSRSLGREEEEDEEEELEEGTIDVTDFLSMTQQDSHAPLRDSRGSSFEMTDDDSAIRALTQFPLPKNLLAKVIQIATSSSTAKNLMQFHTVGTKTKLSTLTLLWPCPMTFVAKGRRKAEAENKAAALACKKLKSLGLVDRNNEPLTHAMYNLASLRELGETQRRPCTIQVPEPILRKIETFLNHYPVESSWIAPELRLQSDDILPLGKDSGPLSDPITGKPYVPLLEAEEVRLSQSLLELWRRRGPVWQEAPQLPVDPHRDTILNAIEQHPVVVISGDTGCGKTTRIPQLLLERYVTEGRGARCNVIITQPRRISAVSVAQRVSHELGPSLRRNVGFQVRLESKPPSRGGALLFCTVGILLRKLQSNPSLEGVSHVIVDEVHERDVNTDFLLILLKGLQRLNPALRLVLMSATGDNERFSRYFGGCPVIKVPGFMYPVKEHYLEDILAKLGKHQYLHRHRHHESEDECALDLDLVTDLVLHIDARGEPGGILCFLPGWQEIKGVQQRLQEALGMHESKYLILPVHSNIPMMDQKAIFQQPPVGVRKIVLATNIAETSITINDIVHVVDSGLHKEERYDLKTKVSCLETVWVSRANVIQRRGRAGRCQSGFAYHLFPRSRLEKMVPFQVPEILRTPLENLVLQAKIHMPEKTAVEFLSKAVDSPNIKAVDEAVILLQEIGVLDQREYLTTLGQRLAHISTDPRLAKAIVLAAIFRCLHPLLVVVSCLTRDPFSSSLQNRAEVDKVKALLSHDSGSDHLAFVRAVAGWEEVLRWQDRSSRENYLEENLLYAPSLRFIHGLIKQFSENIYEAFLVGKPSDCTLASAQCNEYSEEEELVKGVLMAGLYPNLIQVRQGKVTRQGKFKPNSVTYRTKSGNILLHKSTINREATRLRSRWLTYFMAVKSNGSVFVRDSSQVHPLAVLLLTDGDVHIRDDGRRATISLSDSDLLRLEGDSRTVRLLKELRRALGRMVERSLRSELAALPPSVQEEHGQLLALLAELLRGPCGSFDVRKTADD

Each structure is given as a SMILES string. Activity calls are given as the source filed them. For most assays here, no stated cut-off is given here; in the data, actives have a measured Kd and inactives only a lower limit. Bounds are passed on as bounds.

G protein-coupled receptor kinase 6, sequence (P43250 whole entry): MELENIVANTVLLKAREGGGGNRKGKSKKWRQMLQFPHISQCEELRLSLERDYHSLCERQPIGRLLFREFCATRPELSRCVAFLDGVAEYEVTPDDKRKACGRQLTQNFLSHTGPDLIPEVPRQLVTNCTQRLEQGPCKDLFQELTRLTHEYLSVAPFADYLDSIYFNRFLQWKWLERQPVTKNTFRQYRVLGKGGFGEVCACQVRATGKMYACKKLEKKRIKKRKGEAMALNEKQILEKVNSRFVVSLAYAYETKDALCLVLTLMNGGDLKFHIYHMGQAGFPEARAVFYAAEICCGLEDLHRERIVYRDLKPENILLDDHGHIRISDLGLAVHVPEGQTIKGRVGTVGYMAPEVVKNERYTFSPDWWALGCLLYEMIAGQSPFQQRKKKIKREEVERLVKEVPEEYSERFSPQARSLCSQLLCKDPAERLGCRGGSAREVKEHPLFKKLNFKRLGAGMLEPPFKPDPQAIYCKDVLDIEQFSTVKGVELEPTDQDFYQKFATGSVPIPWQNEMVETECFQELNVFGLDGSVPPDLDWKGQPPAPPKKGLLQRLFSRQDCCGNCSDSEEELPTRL
Serine/threonine-protein kinase N1, sequence (Q16512 whole entry): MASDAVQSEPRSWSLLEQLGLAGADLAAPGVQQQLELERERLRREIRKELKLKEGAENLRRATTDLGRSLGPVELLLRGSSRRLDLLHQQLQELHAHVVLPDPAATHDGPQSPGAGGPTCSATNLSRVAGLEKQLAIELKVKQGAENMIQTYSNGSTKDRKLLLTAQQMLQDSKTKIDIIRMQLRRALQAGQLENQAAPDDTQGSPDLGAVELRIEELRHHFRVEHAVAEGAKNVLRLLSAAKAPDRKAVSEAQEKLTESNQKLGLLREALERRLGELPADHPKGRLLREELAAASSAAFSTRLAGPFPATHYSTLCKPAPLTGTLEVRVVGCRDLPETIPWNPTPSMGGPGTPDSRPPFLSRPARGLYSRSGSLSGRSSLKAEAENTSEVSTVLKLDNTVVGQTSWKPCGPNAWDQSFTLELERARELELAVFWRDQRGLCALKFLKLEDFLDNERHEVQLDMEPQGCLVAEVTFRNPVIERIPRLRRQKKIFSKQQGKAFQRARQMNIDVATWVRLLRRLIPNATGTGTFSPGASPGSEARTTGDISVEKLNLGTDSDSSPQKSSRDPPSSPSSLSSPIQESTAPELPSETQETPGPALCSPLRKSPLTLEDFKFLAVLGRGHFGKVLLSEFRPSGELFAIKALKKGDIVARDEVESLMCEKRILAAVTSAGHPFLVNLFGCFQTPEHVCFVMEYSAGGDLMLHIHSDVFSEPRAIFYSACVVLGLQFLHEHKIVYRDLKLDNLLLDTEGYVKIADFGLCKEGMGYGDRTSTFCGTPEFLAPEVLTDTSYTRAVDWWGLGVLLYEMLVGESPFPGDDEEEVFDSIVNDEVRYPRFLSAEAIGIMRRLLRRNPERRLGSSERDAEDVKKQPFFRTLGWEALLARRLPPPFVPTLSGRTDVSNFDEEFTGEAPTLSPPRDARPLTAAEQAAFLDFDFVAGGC
Ribosomal protein S6 kinase alpha-4, sequence (O75676 whole entry, the tested form may be a part): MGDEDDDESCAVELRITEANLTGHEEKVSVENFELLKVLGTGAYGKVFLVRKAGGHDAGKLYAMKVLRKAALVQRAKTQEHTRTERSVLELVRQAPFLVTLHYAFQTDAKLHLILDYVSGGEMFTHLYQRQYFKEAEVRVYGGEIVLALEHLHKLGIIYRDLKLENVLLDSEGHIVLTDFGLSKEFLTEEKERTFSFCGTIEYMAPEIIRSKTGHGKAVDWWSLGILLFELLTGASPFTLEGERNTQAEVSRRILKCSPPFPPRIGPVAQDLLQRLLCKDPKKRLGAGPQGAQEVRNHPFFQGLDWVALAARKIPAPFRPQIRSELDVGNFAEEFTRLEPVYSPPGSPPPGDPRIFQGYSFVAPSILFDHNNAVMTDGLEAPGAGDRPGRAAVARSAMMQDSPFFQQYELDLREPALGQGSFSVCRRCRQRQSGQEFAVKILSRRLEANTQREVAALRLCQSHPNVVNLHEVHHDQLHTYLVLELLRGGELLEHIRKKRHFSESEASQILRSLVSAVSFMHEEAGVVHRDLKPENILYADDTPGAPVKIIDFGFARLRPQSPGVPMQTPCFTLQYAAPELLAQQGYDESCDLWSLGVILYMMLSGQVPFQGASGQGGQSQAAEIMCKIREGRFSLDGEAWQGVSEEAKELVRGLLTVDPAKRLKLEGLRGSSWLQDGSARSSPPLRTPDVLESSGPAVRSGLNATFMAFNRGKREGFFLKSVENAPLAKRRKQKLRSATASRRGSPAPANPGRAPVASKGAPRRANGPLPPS

`C[C@@H](Oc1cc(C(=O)Nc2ccc(C(=O)N3CCN(C)CC3)cc2)nnc1N)c1c(Cl)ccc(F)c1Cl`: the Kd in [1], in test [2], in test [3], in [4], in [5] and in test [6] was > 30 µM (inactive) in each case. Besides, the Kd in test [7], in test [8], in test [9], in test [10], in test [11] and in test [12] was > 30 µM (inactive) each time.
Take `CCNC(=O)C#Cc1ccc2c(c1)NC(=O)/C2=C(\Nc1ccc(CN(C)C)cc1)c1ccccc1`: the Kd in test [1] is > 30 µM (inactive); in [2], > 30 µM (inactive); in test [3], 1.46 µM (active); in [4] it was 0.469 µM (active); in test [5], 0.385 µM (active); in test [6] it was > 30 µM (inactive). The Kd is 3.48 µM (active) in [7]; > 30 µM (inactive) in test [8]; > 30 µM (inactive) in test [9]; > 30 µM (inactive) in test [10]; 0.227 µM (active) in test [11]; > 30 µM (inactive) in test [12].
Take `CCn1c(C(=O)N(C2CC2)C2CC2)cc2c3c(ncn3C)c(Nc3cc(C)n(C)n3)nc21` [BMS-911543]: the Kd in test [1], in test [2], in test [3], in test [4], in [5] and in test [6] was > 30 µM (inactive) throughout. Moreover, the Kd in test [7], in [8], in [9], in test [10], in test [11] and in [12] was > 30 µM (inactive) each time.
For the molecule `O=C(Nc1cc(C(F)(F)F)cc(C(F)(F)F)c1)c1cc(Cl)ccc1O` [IMD-0354], the Kd in test [1], in test [2], in test [3], in test [4], in test [5] and in [6] was > 30 µM (inactive) in each case. Besides, the Kd in test [7], in [8], in [9], in [10] and in test [11] was > 30 µM (inactive) in each case.
For the molecule `CNC(=O)c1nn(C)c2c1C(C)(C)Cc1cnc(Nc3ccc(N4CCN(C)CC4)cc3)nc1-2` [MILCICLIB], the Kd was > 30 µM (inactive) in [1]; > 30 µM (inactive) in test [2]; > 30 µM (inactive) in test [3]; 4.17 µM (active) in test [4]; > 30 µM (inactive) in test [5]; > 30 µM (inactive) in [6]. Besides, the Kd in [7] was > 30 µM (inactive); in test [8] it was > 30 µM (inactive); in [9], > 30 µM (inactive); in test [10], > 30 µM (inactive); in test [11] it was 1.32 µM (active).
Consider `FC(F)(F)c1ccc(/C=C/c2nc(COc3ccc(CCCCn4ccnn4)cc3)co2)cc1` [MUBRITINIB], for which the Kd in test [1], in test [2], in test [3], in [4], in test [5] and in test [6] was > 30 µM (inactive) throughout. Also, the Kd in test [7], in [8], in test [9], in test [10], in test [11] and in test [12] was > 30 µM (inactive) each time.
`CC(=O)NCC(=O)N1[C@@H]2CC[C@H]1c1ccc(Nc3ncc(C(F)(F)F)c(NC4CCC4)n3)cc12` [PF-03814735]: the Kd in test [1] is > 30 µM (inactive); in [2], > 30 µM (inactive); in test [3], 0.156 µM (active); in [4], > 30 µM (inactive); in test [6] it was 2.94 µM (active); in [7], > 30 µM (inactive). Moreover, the Kd in test [8] and in test [10] was > 30 µM (inactive) in each case.
`C[C@@H](NC(=O)c1ncnc(N)c1Cl)c1ncc(C(=O)Nc2cc(C(F)(F)F)c(Cl)cn2)s1` [TOVORAFENIB]: the Kd in test [2] was > 30 µM (inactive); in test [3], > 30 µM (inactive); in test [4] it was 0.063 µM (active); in test [5], > 30 µM (inactive); in test [6], > 30 µM (inactive); in test [13] it was > 30 µM (inactive). The Kd in test [7], in test [8], in test [9], in [10], in [11] and in [12] was > 30 µM (inactive) each time.
For the molecule `Cn1ncc(Cl)c1-c1cc(C(=O)N[C@H](CN)Cc2ccc(F)c(F)c2)oc1Cl` [UPROSERTIB], the Kd in test [2] was > 30 µM (inactive); in [3], > 30 µM (inactive); in [4] it was > 30 µM (inactive); in [5] it was > 30 µM (inactive); in test [6] it was 0.076 µM (active); in test [13] it was > 30 µM (inactive). The Kd in test [7], in test [8], in test [9], in [10], in test [11] and in [12] was > 30 µM (inactive) in each case.

For orientation: Kd means the constant that tells how readily two partners part at equilibrium.

Values taken from ChEMBL document CHEMBL3991601, “The target landscape of clinical kinase drugs” (Science, 2017).
